This is an account of results in US12583849B2, “KCNT1 inhibitors and methods of use” (Praxis Precision Medicines, Inc., priority 2020, dated 2026).

SMILES strings stand for the structures.

This experiment addresses T1, KCNT1 (KNa1.1, Slack) (Homo sapiens, UniProt Q5JUK3).
T1 construct: expressed in transfected cells; host or cells: HEK-TREX (tetracycline-inducible cell line)
T1 sequence (Q5JUK3 1-1230): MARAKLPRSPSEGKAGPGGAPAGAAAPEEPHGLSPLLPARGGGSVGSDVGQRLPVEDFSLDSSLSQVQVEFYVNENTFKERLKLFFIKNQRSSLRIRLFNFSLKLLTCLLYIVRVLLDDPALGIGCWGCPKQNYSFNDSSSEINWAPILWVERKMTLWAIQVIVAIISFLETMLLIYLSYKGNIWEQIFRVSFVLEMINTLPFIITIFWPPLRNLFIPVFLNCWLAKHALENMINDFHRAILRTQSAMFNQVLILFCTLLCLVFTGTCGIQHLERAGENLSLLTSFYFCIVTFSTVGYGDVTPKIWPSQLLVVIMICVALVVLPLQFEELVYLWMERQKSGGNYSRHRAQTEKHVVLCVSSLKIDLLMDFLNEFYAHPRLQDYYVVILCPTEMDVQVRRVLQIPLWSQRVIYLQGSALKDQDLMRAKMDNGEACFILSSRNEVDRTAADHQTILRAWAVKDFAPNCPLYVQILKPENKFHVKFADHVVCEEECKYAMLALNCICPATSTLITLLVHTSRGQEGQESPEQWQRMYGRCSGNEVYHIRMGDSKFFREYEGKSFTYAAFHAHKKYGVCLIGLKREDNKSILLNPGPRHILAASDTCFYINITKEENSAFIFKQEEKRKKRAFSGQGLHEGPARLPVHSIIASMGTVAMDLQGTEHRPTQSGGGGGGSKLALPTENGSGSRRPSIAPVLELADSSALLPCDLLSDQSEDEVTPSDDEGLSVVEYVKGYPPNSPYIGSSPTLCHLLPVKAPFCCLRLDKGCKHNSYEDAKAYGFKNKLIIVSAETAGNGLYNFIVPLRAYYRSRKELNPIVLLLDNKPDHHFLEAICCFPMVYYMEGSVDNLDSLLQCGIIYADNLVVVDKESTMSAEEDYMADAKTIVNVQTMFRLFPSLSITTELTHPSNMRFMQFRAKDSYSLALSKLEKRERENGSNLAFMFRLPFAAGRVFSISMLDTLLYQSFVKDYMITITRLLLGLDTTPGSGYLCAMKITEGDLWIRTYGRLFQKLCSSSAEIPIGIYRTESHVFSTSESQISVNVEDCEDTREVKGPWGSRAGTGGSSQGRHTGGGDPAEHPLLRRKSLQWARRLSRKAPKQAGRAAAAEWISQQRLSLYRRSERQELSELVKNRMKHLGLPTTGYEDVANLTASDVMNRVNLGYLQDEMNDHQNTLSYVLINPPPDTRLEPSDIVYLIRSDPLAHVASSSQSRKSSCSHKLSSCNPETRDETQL
Description: KCNT1-WT-Basal Patch Clamp Assay. The experiment is classed as cell-based. The settings on record: tetracycline inducible cell line (HEK-TREX); SyncroPatch 384PE automated patch clamp, perforated patch mode, room temperature, step from -80 mV to 0 mV. The protocol:
KCNT1-WT-Basal—Patch Clamp Assay
Inhibition of KCNT1 (KNa1.1, Slack) was evaluated using a tetracycline inducible cell line (HEK-TREX). Currents were recorded using the SyncroPatch 384PE automated, patch clamp system. Pulse generation and data collection were performed with PatchController384 V1.3.0 and DataController384 V1.2.1 (Nanion Technologies). The access resistance and apparent membrane capacitance were estimated using built-in protocols. Current were recorded in perforated patch mode (10 μM escin) from a population of cells. The cells were lifted, triturated, and resuspended at 800,000 cells/ml. The cells were allowed to recover in the cell hotel prior to experimentation. Currents were recorded at room temperature. The external solution contained the following (in mM): NaCl 105, NMDG 40, KCl 4, MgCl2 1, CaCl2 5 and HEPES 10 (pH=7.4, Osmolarity ˜300 mOsm). The extracellular solution was used as the wash, reference and compound delivery solution. The internal solution contained the following (in mM): NaCl 70, KF 70, KCl 10, EGTA 5, HEPES 5 and Escin 0.01 (pH=7.2, Osmolarity ˜295 mOsm). Escin is made at a 5 mM stock in water, aliquoted, and stored at −20° C. The compound plate was created at 2× concentrated in the extracellular solution. The compound was diluted to 1:2 when added to the recording well. The amount of DMSO in the extracellular solution was held constant at the level used for the highest tested concentration. A holding potential of −80 mV with a 100 ms step to 0 mV was used. Mean current was measured during the step to 0 mV. […] The average mean current from 3 sweeps was calculated and the % inhibition of each compound was calculated. The % Inhibition as a function of the compound concentration was fit with a Hill equation to derive IC50, slope, min and max parameters. If KCNT1 inhibition was less than 50% at the highest tested concentration or if an IC50 could not be calculated, then a percent inhibition was reported in place of the IC50.
In this table, “A” indicates IC50 of less than or equal to 1 μM; “B” indicates inhibition of between 1 μM to 20 μM; and “C” indicates inhibition of greater than or equal to 20 μM.
In general terms: The patch-clamp technique gives a direct electrical read-out from membranes.

As usually defined, the IC50 is the point on the concentration scale where inhibition reaches its midpoint. Read a high IC50 as weaker potency in that assay. `C[C@H](NC(=O)Cc1ccccc1)c1nc(-c2ccnc(C3CC3)c2)no1` [Compound I-42, (S)—N-(1-(3-(2-cyclopropylpyridin-4-yl)-1,2,4-oxadiazol-5-yl)ethyl)-2-phenylacetamide]: the IC50 was no more than 1 µM.

The compound `C[C@H](NC(=O)[C@H]1CC[C@@H](C)CC1)c1nc(-c2ccnc(C(F)(F)F)c2)no1` [Compound I-36, cis-4-methyl-N—((S)-1-(3-(2-(trifluoromethyl)pyridin-4-yl)-1,2,4-oxadiazol-5-yl)ethyl)cyclohexane-1-carboxamide] registered a concentration for half-maximal inhibition (IC50) of no more than 1 µM.

The compound `C[C@H](NC(=O)c1nc(C(F)(F)F)cs1)c1nc(-c2ccnc(C(F)(F)F)c2)no1` [Compound I-5, (S)-4-(trifluoromethyl)-N-(1-(3-(2-(trifluoromethyl)pyridin-4-yl)-1,2,4-oxadiazol-5-yl)ethyl)thiazole-2-carboxamide] yielded an IC50 of no more than 1 µM.

Take `CC1CCC(C(=O)N[C@@H](C)c2nc(-c3ccnc(C(F)(F)F)c3)no2)CC1` (stereo partly drawn) [Compound I-19, (S)-4-methyl-N-(1-(3-(2-(trifluoromethyl)pyridin-4-yl)-1,2,4-oxadiazol-5-yl)ethyl)cyclohexane-1-carboxamide]: the IC50 is no more than 1 µM.

As for `Cc1nc(C)c(C(=O)N[C@@H](C)c2nc(-c3cccc(F)c3)no2)s1` [Compound I-39, (S)—N-(1-(3-(3-fluorophenyl)-1,2,4-oxadiazol-5-yl)ethyl)-2,4-dimethylthiazole-5-carboxamide], the IC50 lay in the range of 1 to 20 µM.

Compound `Cc1ccc(C(=O)N[C@@H](C)c2nc(-c3ccnc(C4CC4)c3)no2)cc1` [Compound I-87, (S)—N-(1-(3-(2-cyclopropylpyridin-4-yl)-1,2,4-oxadiazol-5-yl)ethyl)-4-methylbenzamide] registered an IC50 of no more than 1 µM.

In the case of `C[C@H](NC(=O)c1nccn1C1CCC1)c1nc(-c2ccnc(C3CC3)c2)no1` [Compound I-104, (S)-1-cyclobutyl-N-(1-(3-(2-cyclopropylpyridin-4-yl)-1,2,4-oxadiazol-5-yl)ethyl)-1H-imidazole-2-carboxamide], the concentration for half-maximal inhibition (IC50) was in the range of 1 to 20 µM.

The compound `C[C@H](NC(=O)C1(C)CC1)c1nc(-c2ccnc(C(F)(F)F)c2)no1` [Compound I-33, (S)-1-methyl-N-(1-(3-(2-(trifluoromethyl)pyridin-4-yl)-1,2,4-oxadiazol-5-yl)ethyl)cyclopropane-1-carboxamide] displayed an IC50 of 1 to 20 µM.

Take `C[C@H](NC(=O)c1ccc(Br)s1)c1nc(-c2ccnc(C(F)(F)F)c2)no1` [Compound I-18, (S)-5-bromo-N-(1-(3-(2-(trifluoromethyl)pyridin-4-yl)-1,2,4-oxadiazol-5-yl)ethyl)thiophene-2-carboxamide]: the half-maximal inhibitory concentration (IC50) was no more than 1 µM.

`C[C@H](NC(=O)NC(C)(C)C)c1nc(-c2ccnc(C3CC3)c2)no1` [II-7] registered a half-inhibitory concentration (IC50) of no more than 1 µM.

For `CC(NC(=O)c1cn2c(n1)CCCC2)c1nc(-c2cccc(F)c2)no1` (centres unmarked) [Compound I-52, N-[1-[3-(3-fluorophenyl)-1,2,4-oxadiazol-5-yl]ethyl]-5,6,7,8-tetrahydroimidazo[1,2-a]pyridine-2-carboxamide], the IC50 is no less than 20 µM.

`C[C@H](NC(=O)c1ccns1)c1nc(-c2ccnc(C(F)(F)F)c2)no1` [Compound I-22, (S)—N-(1-(3-(2-(trifluoromethyl)pyridin-4-yl)-1,2,4-oxadiazol-5-yl)ethyl)isothiazole-5-carboxamide] gave a concentration for half-maximal inhibition (IC50) of 1 to 20 µM.

In the case of `C[C@H](NC(=O)c1cccnn1)c1nc(-c2ccnc(C(F)(F)F)c2)no1` [Compound I-24, (S)—N-(1-(3-(2-(trifluoromethyl)pyridin-4-yl)-1,2,4-oxadiazol-5-yl)ethyl)pyridazine-3-carboxamide], the half-maximal inhibitory concentration (IC50) was no less than 20 µM.

For `C[C@H](NC(=O)c1ccccc1Cl)c1nc(-c2ccnc(C3CC3)c2)no1` [Compound I-80, 2-chloro-N-[(1S)-1-[3-(2-cyclopropyl-4-pyridyl)-1,2,4-oxadiazol-5-yl]ethyl]benzamide], the concentration for half-maximal inhibition (IC50) is no more than 1 µM.
